Experimental data reported in patent publication US8716247B2, “Peptides effective in the treatment of tumors and other conditions requiring the removal or destruction of cells” (Nymox Corporation, priority 2006, dated 2014).
Where no end group is shown, it is not given here.

System: prostate
Assay: Intraprostatic infusion of S05A Peptides in rats: histological changes of cell death and prostate volume
Type: in vivo, Male Sprague-Dawley rats
Parameters: key to Histological Changes of Cell Death at 24 Hours / Histological Changes of Cell Death at 72 Hours: −: Absent; +: Present, Minimal; ++: Present, Moderate; +++: Present, Moderate and Diffuse; ++++: Present, Diffuse and Extensive
Conditions: for Calculated Mean Volume 24 Hours / Calculated Mean Volume 72 Hours / Calculated Mean Volume 7 Days: rat prostate volume from mean cross-sectional diameters, V=4/3π(D/2)^3; for Calculated Mean Volume 24 Hours / Calculated Mean Volume 72 Hours / Calculated Mean Volume 7 Days / Calculated Mean Volume Overall: 1.0 mg/kg intraprostatic; for Calculated Mean Volume Overall: rat prostate volume, overall across 24 hours, 72 hours and 7 days; for Histological Changes of Cell Death at 24 Hours / Histological Changes of Cell Death at 72 Hours: rat prostate, intraprostatic infusion 300 μl of 1 mg/mL in PBS pH 7.4 (1.0 mg/kg), H & E sections; for histological findings in prostate of treated rats: rat prostate after intraprostatic infusion, 1.0 mg/kg
Description: The purpose of this example was to determine the effect of S05A Peptides on tissue at sites of injection.
Male Sprague-Dawley rats (300 gram weight range) were anesthetized with ether and given one of the above S05A Peptides by intraprostatic infusion, a control injection of normal saline or no injection after open surgical visualization of the prostate. The injections consisted of 300 μl of the S05A Peptide 1 mg/mL in PBS pH 7.4. (1.0 mg/kg) (n=36). Rats were painlessly sacrificed after 24 hours (n=12), 72 hours (n=12) and 7 days (n=12). Prostate glands were dissected, fixed in 10% buffered formalin for 24 hours, embedded in paraffin, sectioned, and stained with H & E. For each animal the entire prostate gland was embedded and sectioned. All stained sections were examined histologically and measured. For each prostate at least […] histological sections were examined, and for each histological section two cross-sectional diameters (D) at 90° from each other were measured (total of ≧8 measurements per prostate). The mean of the cross-sectional diameters (D) for each group was used to estimate volume according to V=4/3π(D/2)^3 and the mean volume calculated for each group. Histological changes were assessed on the following scale:
+++ Present, Moderate and Diffuse
++++ Present, Diffuse and Extensive

With VLSRIKLEIKRCL [S05A-6] the “Calculated Mean Volume 24 Hours” value was 310 mm^3, the “Calculated Mean Volume 72 Hours” value was 493 mm^3 and the “Calculated Mean Volume 7 Days” value was 408 mm^3. The “Calculated Mean Volume Overall” value was 404 mm^3, the “Histological Changes of Cell Death at 24 Hours” value was “+” and the “Histological Changes of Cell Death at 72 Hours” value was “+”.
For IDQQVLSRIKLEI [S05A-7], the “histological findings in prostate of treated rats” value was “extensive cell death, necrosis, loss of glandular epithelium and atrophy”, the “Calculated Mean Volume 24 Hours” value was 180 mm^3 and the “Calculated Mean Volume 72 Hours” value was 165 mm^3. For the same substance, the “Calculated Mean Volume 7 Days” value was 357 mm^3, the “Calculated Mean Volume Overall” value was 234 mm^3 and the “Histological Changes of Cell Death at 24 Hours” value was “++++”. For the same substance, the “Histological Changes of Cell Death at 72 Hours” value was “++++”.
IDQQVLSRI [S05A-2] was tested, and the “histological findings in prostate of treated rats” value was “extensive cell death, necrosis, loss of glandular epithelium and atrophy”, the “Calculated Mean Volume 24 Hours” value was 180 mm^3 and the “Calculated Mean Volume 72 Hours” value was 249 mm^3. The “Calculated Mean Volume 7 Days” value was 165 mm^3, the “Calculated Mean Volume Overall” value was 198 mm^3 and the “Histological Changes of Cell Death at 24 Hours” value was “++++”. For the same substance, the “Histological Changes of Cell Death at 72 Hours” value was “++++”.
KLEIKRCL [S05A-3] was tested, and the “Calculated Mean Volume 24 Hours” value was 249 mm^3, the “Calculated Mean Volume 72 Hours” value was 435 mm^3 and the “Calculated Mean Volume 7 Days” value was 463 mm^3. The “Calculated Mean Volume Overall” value was 382 mm^3, the “Histological Changes of Cell Death at 24 Hours” value was “+” and the “Histological Changes of Cell Death at 72 Hours” value was “+”.
VLSRIK [S05A-4] was tested, and the “Calculated Mean Volume 24 Hours” value was 357 mm^3, the “Calculated Mean Volume 72 Hours” value was 408 mm^3 and the “Calculated Mean Volume 7 Days” value was 333 mm^3. For the same substance, the “Calculated Mean Volume Overall” value was 366 mm^3, the “Histological Changes of Cell Death at 24 Hours” value was “+” and the “Histological Changes of Cell Death at 72 Hours” value was “+”.
For RIKLEIK [S05A-5], the “Calculated Mean Volume 24 Hours” value was 249 mm^3, the “Calculated Mean Volume 72 Hours” value was 408 mm^3 and the “Calculated Mean Volume 7 Days” value was 392 mm^3. The “Calculated Mean Volume Overall” value was 350 mm^3, the “Histological Changes of Cell Death at 24 Hours” value was “+” and the “Histological Changes of Cell Death at 72 Hours” value was “+”.
